Marks after values point to notes of the source that are not given here. Where no end group is shown, it is not given here.
Assays:
[1] = Method: Lipophilicity was determined as the logarithm of partition coefficient, logP, of the radiolabelled compound between n-octanol and water. To determine the lipophilicity of both radioconjugates, 500 µL of n-octanol was added to a tube containing the same volume of Milli-Q water. 1 pmol (10 kBq) of radioconjugate was added. The mixture was vigorously vortexed for 1–2 min and then centrifuged. Aliquots of 100 μL were taken from each phase and their radioactivity was measured by an automated gamma-counter. The partition coefficient was calculated as the average log of a ratio of the radioactivity in organic and aqueous fractions. Each measurement was repeated in triplicate.
[2] = test system: GRPR-expressing PC-3 tumour xenograft; conditions: 0.5 h after injection; co-injection of non-labelled NOTA-PEG4-RM26
Method: (§1) Animal studies were planned and performed in agreement with EU Directive 2010/63/EU for animal experiments and Swedish national legislation concerning protection of laboratory animals. Experiments were approved by the Ethics Committee for Animal Research in Uppsala (C4/16, 26 February 2016). Biodistribution studies were performed in female BALB/C nu/nu mice purchased from Scanbur A/S (Karlslunde, Denmark). GRPR-expressing xenografts were established by subcutaneous injection of 5 × 10^6 PC-3 cells/mouse in the right hind leg of mice 3 weeks before the experiment. The animals were randomized into groups of four mice for each data point.
Mice were euthanized followed by dislocation of their neck at 0.5 h after injection and blood samples were collected by heart puncture. At 3 and 24 h after injection, mice were euthanized by an intraperitoneal injection of anaesthetic solution (20 µL of solution per gram of body weight: Ketalar, 10 mg/mL; Rompun, 1 mg/mL) followed by heart puncture. […] The organ radioactivity was measured in a gamma-counter and uptake values of organs were calculated as percentage of injected dose per gram tissue (% ID/g). To test the in vivo binding specificity, a group of mice was co-injected with 7.5 nmol of non-labelled peptide (NOTA-PEG4-RM26), and biodistribution was measured at 0.5 h after injection.

in vivo = conditions: mouse, iv, 40 pmol, Uptake, 40 pmol i.v.; for tissue uptake at 0.5 h: 0.5 h after injection; for tissue uptake at 3 h: 3 h after injection; for tissue uptake at 24 h: 24 h after injection
Method: as §1
(§2) Mice were euthanized followed by dislocation of their neck at 0.5 h after injection and blood samples were collected by heart puncture. At 3 and 24 h after injection, mice were euthanized by an intraperitoneal injection of anaesthetic solution (20 µL of solution per gram of body weight: Ketalar, 10 mg/mL; Rompun, 1 mg/mL) followed by heart puncture. Salivary glands, thyroid, lung, liver, spleen, pancreas, stomach, small intestine, kidneys, tumour, muscle, and bone were collected and weighed. The organ radioactivity was measured in a gamma-counter and uptake values of organs were calculated as percentage of injected dose per gram tissue (% ID/g). To test the in vivo binding specificity, a group of mice was co-injected with 7.5 nmol of non-labelled peptide (NOTA-PEG4-RM26), and biodistribution was measured at 0.5 h after injection.

[3] = test system: GRPR-expressing PC-3 tumour xenograft; test: in vivo; conditions: 0.5 h after injection; 40 pmol i.v.; non-blocked
Method: as §1, §2

GRPR [4] = test system: GRPR; set-up: method as in PMID 16818949, PMID 7876231; conditions: within 20–40 min; cited from earlier work
GRPR [5] = molecular target: GRPR (Homo sapiens, UniProt P30550); test: biochemical
Method: All experiments were performed in triplicate and 1 × 10^6 cells/dish were seeded one day before the experiment.

[6] = small intestine, small intestine

Sequence of GRPR (Homo sapiens, UniProt P30550) (P30550 whole entry): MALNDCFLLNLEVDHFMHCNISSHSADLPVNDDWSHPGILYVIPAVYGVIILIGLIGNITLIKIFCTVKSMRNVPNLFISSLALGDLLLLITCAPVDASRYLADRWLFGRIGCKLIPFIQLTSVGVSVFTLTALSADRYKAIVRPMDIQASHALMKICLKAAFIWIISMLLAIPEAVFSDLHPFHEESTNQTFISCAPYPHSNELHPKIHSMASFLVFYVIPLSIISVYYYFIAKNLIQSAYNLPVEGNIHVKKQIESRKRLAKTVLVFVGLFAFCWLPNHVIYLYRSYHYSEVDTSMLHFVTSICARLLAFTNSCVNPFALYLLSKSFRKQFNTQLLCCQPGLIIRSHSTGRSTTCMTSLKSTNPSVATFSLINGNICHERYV

CC(C)C[C@H](NC(=O)C[C@H](O)[C@H](CC(C)C)NC(=O)[C@H](Cc1c[nH]cn1)NC(=O)CNC(=O)[C@@H](NC(=O)[C@H](C)NC(=O)[C@H](Cc1c[nH]c2ccccc12)NC(=O)[C@H](CCC(N)=O)NC(=O)[C@@H](Cc1ccccc1)NC(=O)COCCOCCNC(=O)CN1CCN(CC(=O)O)CCN(CC(=O)O)CCN(CC(=O)O)CC1)C(C)C)C(N)=O [[^111In]In-DOTA-PEG2-RM26, metal not drawn, reference compound]
logP [1]: -2.6 ± 0.4
Uptake in pancreas, blocked vs non-blocked group [2]: significant (p < 0.05) reduction
tissue uptake at 0.5 h (in vivo; blood, blood): 2.1 ± 0.8 %ID/g
tissue uptake at 3 h (in vivo; blood, blood): 0.03 %ID/g
tissue uptake at 24 h (in vivo; blood, blood): 0.006 ± 0.002 %ID/g
tissue uptake at 0.5 h (in vivo; bone, bone): 0.6 ± 0.3 %ID/g
tissue uptake at 3 h (in vivo; bone, bone): 0.05 ± 0.02 %ID/g
tissue uptake at 0.5 h (in vivo; kidney, kidney): 9.1 ± 2.9 %ID/g
tissue uptake at 3 h (in vivo; kidney, kidney): 2.4 ± 0.3 %ID/g
tissue uptake at 0.5 h (in vivo; liver, liver): 0.8 ± 0.2 %ID/g
tissue uptake at 3 h (in vivo; liver, liver): 0.2 %ID/g
tissue uptake at 24 h (in vivo; liver, liver): 0.1 %ID/g
tissue uptake at 0.5 h (in vivo; lung, lung): 1.8 ± 0.4 %ID/g
tissue uptake at 3 h (in vivo; lung, lung): 0.1 %ID/g
tissue uptake at 0.5 h (in vivo; muscle, muscle): 0.4 ± 0.1 %ID/g
tissue uptake at 3 h (in vivo; muscle, muscle): 0.02 %ID/g
tissue uptake at 0.5 h (in vivo; pancreas, pancreas): 6.5 ± 1.4 %ID/g
tissue uptake at 3 h (in vivo; pancreas, pancreas): 0.2 %ID/g
tissue uptake at 0.5 h (in vivo; salivary gland, salivary gland): 0.8 ± 0.2 %ID/g
tissue uptake at 3 h (in vivo; salivary gland, salivary gland): 0.07 ± 0.02 %ID/g
tissue uptake at 0.5 h (in vivo; [6]): 1.5 ± 0.5 %ID/g
tissue uptake at 3 h (in vivo; [6]): 0.2 ± 0.1 %ID/g
tissue uptake at 0.5 h (in vivo; spleen, spleen): 0.6 ± 0.2 %ID/g
tissue uptake at 3 h (in vivo; spleen, spleen): 0.1 %ID/g
tissue uptake at 0.5 h (in vivo; stomach, stomach): 2.9 ± 1.1 %ID/g
tissue uptake at 0.5 h (in vivo; thyroid, thyroid): 1.1 ± 0.5 %ID/g
tissue uptake at 3 h (in vivo; thyroid, thyroid): 0.1 %ID/g
tissue uptake at 0.5 h (in vivo; tumour, tumour, non-blocked): 13 ± 5 %ID/g
tissue uptake at 3 h (in vivo; tumour, tumour): 9.6 ± 0.6 %ID/g
tissue uptake at 24 h (in vivo; tumour, tumour): 3.6 ± 1.3 %ID/g
Uptake, tumour [3]: 13.2 ± 4.8 ^a,h % ID/g

[^125I]I-GRP: agonistic radioiodinated gastrin-releasing peptide (VPLPAGGGTVLTKMYPRGNHWAVGHLM; ends and bridges not checked; also: 125I radioiodination, position not given here; UniProt P07492 24-50, looked up)
Internalization (GRPR [4]): 75–80%

CC(C)C[C@H](NC(=O)C[C@H](O)[C@H](CC(C)C)NC(=O)[C@H](Cc1c[nH]cn1)NC(=O)CNC(=O)[C@@H](NC(=O)[C@H](C)NC(=O)[C@H](Cc1c[nH]c2ccccc12)NC(=O)[C@H](CCC(N)=O)NC(=O)[C@@H](Cc1ccccc1)NC(=O)COCCOCCNC(=O)[C@@H](N)Cc1ccc(O)cc1)C(C)C)C(N)=O [Tyr-PEG2-RM26, Tyrosine-PEG2-[D-Phe^6, Sta^13, Leu^14] bombesin[6–14]]
IC50 (GRPR [5]): 1.7 ± 0.3 nM
